# Results taken from article PMC12564265, “Navigating the Deep Eutectic Solvent Landscape: Experimental and Machine Learning Solubility Explorations of Syringic, p-Coumaric, and Caffeic Acids” (International Journal of Molecular Sciences, 2025).
# “And” between values parts separate entries of the source, which are not always exact repeats. Identical values can stand only once.
# Tests used:
# [1] = Shake-flask solubility with spectrophotometric measurement in aqueous DES mixtures; format: physicochemical
# Procedure: (§1) In order to determine the solubility of the three studied phenolic acids in deep eutectic solvents, a very well-established shake-flask method coupled with spectrophotometric measurements was utilized. The initial procedure involved the preparation of various DESs, which was conducted by mixing their HBA and HBD counterparts in a glass vessel and heating the composition until the formation of a transparent, uniform liquid. […] For additional measurements, the DESs were mixed with water in varying proportions, creating aqueous DES systems. Saturated solutions of CAF, SYR, and COU were obtained by adding excess amounts of these compounds to test tubes containing either a neat deep eutectic solvent or its aqueous solution. Such samples were placed in the Orbital Shaker Incubator ES-20/60 from Biosan (Riga, Latvia) and heated for 24 h at 25 °C, 30 °C, 35 °C, and 40 °C (±0.1 °C) with simultaneous mixing at 60 rpm. Before measurements, the samples were filtered using a PTFE syringe filter from Qpore (Dallas, TX, USA) with a 0.22 μm pore size. In order to avoid possible precipitation of the saturated solutions at decreased temperatures, the test tubes, syringes, pipette tips, and filters were kept at a temperature identical to that of the samples. The spectrophotometric measurements required the preparation of calibration curves for the three APIs. This involved the preparation of a stock solution of each compound in methanol, which was later successfully diluted, and the obtained solutions of varying concentrations were measured using an A360 spectrophotometer from AOE Instruments (Shanghai, China). The wavelength range was set to 200-500 nm, and the resolution was 1 nm. The analytical wavelengths were determined to be 324 nm for caffeic acid, 273 nm for syringic acid, and 308 nm for p-coumaric acid. The final regression equations, obtained after averaging three distinct sets of measurements, are collected in Table 2 together with determination coefficients and limits of detection (LOD) and quantification (LOQ) for the calibration curves. The measurements of the samples were conducted with the same spectrophotometer and identical settings. Methanol was used for the dilution of the samples so that they could remain within the linearity range of the method. Complete spectra of the samples were recorded, but for the solubility determination, the absorbance values at a specific analytical wavelength were considered. These values were combined with the corresponding regression equations of the calibration curves and served for the calculation of the concentration of the three phenolic acids in the studied samples. The densities of such samples were also measured, and for this task 1 mL of each sample was weighed to a precision of 0.1 mg using an AS 110 R2.PLUS analytical balance from […] (Radom, Poland). The obtained densities enabled the calculation of mole fractions of CAF, SYR, and COU dissolved in the studied DESs. For each considered system, three distinct measurements were conducted, and the results were averaged.
# [2] = Shake-flask solubility with spectrophotometric measurement in neat deep eutectic solvents; format: physicochemical
# Procedure: as §1
compound,measurement,setting,value
"O=C(O)C=Cc1ccc(O)cc1 [p-coumaric acid, 4-hydroxycinnamic acid]",Mole fraction solubility,"[1]; ChCl – TEG 1:2 + water, x*DES 0.3, 35°C",0.0649±0.0005 mole fraction
same,Mole fraction solubility,"[1]; ChCl – TEG 1:2 + water, x*DES 0.3, 40°C",0.0862±0.0009 mole fraction
same,Mole fraction solubility,"[1]; ChCl – TEG 1:2 + water, x*DES 0.4, 25°C",0.0512±0.0003 mole fraction
same,Mole fraction solubility,"[1]; ChCl – TEG 1:2 + water, x*DES 0.4, 30°C",0.0664±0.0007 mole fraction
same,Mole fraction solubility,"[1]; ChCl – TEG 1:2 + water, x*DES 0.4, 35°C",0.0861±0.0005 mole fraction
same,Mole fraction solubility,"[1]; ChCl – TEG 1:2 + water, x*DES 0.4, 40°C",0.1133±0.0008 mole fraction
same,Mole fraction solubility,"[1]; ChCl – TEG 1:2 + water, x*DES 0.5, 25°C",0.0632±0.0004 mole fraction
same,Mole fraction solubility,"[1]; ChCl – TEG 1:2 + water, x*DES 0.5, 30°C",0.0790±0.0006 mole fraction
same,Mole fraction solubility,"[1]; ChCl – TEG 1:2 + water, x*DES 0.5, 35°C",0.1033±0.0010 mole fraction
same,Mole fraction solubility,"[1]; ChCl – TEG 1:2 + water, x*DES 0.5, 40°C",0.1413±0.0012 mole fraction
same,Mole fraction solubility,"[1]; ChCl – TEG 1:2 + water, x*DES 0.6, 25°C",0.0774±0.0005 mole fraction
same,Mole fraction solubility,"[1]; ChCl – TEG 1:2 + water, x*DES 0.6, 30°C",0.0946±0.0004 mole fraction
same,Mole fraction solubility,"[1]; ChCl – TEG 1:2 + water, x*DES 0.6, 35°C",0.1258±0.0012 mole fraction
same,Mole fraction solubility,"[1]; ChCl – TEG 1:2 + water, x*DES 0.6, 40°C",0.1692±0.0013 mole fraction
same,Mole fraction solubility,"[1]; ChCl – TEG 1:2 + water, x*DES 0.7, 25°C",0.0885±0.0008 mole fraction
same,Mole fraction solubility,"[1]; ChCl – TEG 1:2 + water, x*DES 0.7, 30°C",0.1119±0.0007 mole fraction
same,Mole fraction solubility,"[1]; ChCl – TEG 1:2 + water, x*DES 0.7, 35°C",0.1523±0.0007 mole fraction
same,Mole fraction solubility,"[1]; ChCl – TEG 1:2 + water, x*DES 0.7, 40°C",0.2060±0.0014 mole fraction
same,Mole fraction solubility,"[1]; ChCl – TEG 1:2 + water, x*DES 0.8, 25°C",0.1016±0.0009 mole fraction
same,Mole fraction solubility,"[1]; ChCl – TEG 1:2 + water, x*DES 0.8, 30°C",0.1348±0.0012 mole fraction
same,Mole fraction solubility,"[1]; ChCl – TEG 1:2 + water, x*DES 0.8, 35°C",0.1803±0.0006 mole fraction
same,Mole fraction solubility,"[1]; ChCl – TEG 1:2 + water, x*DES 0.8, 40°C",0.2401±0.0023 mole fraction
same,Mole fraction solubility,"[1]; ChCl – TEG 1:2 + water, x*DES 0.9, 25°C",0.1054 mole fraction and 0.1054±0.0008 mole fraction
same,Mole fraction solubility,"[1]; ChCl – TEG 1:2 + water, x*DES 0.9, 30°C",0.1368±0.0008 mole fraction
same,Mole fraction solubility,"[1]; ChCl – TEG 1:2 + water, x*DES 0.9, 35°C",0.1857±0.0007 mole fraction
same,Mole fraction solubility,"[1]; ChCl – TEG 1:2 + water, x*DES 0.9, 40°C",0.2507±0.0018 mole fraction
same,Mole fraction solubility,"[1]; ChCl – TEG 1:2, x*DES 1.0 (neat DES), 25°C",0.0997±0.0009 mole fraction
same,Mole fraction solubility,"[1]; ChCl – TEG 1:2, x*DES 1.0 (neat DES), 30°C",0.1304±0.0012 mole fraction
same,Mole fraction solubility,"[1]; ChCl – TEG 1:2, x*DES 1.0 (neat DES), 35°C",0.1773±0.0014 mole fraction
same,Mole fraction solubility,"[1]; ChCl – TEG 1:2, x*DES 1.0 (neat DES), 40°C",0.2433±0.0022 mole fraction
same,Increase in the solubility compared to the neat DES,"[1]; ChCl-TEG 1:2, x*DES = 0.9 (xwater = 0.1), 25 °C",6%
same,Solubility increase between 25 °C and 40 °C,[1]; neat DES (x*DES = 1.0) involving betaine (Bet-GLY 1:2),205%
same,Solubility increase between 25 °C and 40 °C,[1]; neat DES (x*DES = 1.0) with choline chloride (ChCl-TEG 1:2),244%
same,Mole fraction solubility,"[2]; neat DES Bet - DEG, HBA:HBD molar ratio 1:1, 25 °C",0.0490±0.0005 mole fraction
same,Mole fraction solubility,"[2]; neat DES Bet - DEG, HBA:HBD molar ratio 1:2, 25 °C",0.0639±0.0004 mole fraction
same,Mole fraction solubility,"[2]; neat DES Bet - DEG, HBA:HBD molar ratio 1:4, 25 °C",0.0575±0.0005 mole fraction
same,Mole fraction solubility,"[2]; neat DES Bet - ETG, HBA:HBD molar ratio 1:1, 25 °C",0.0323±0.0004 mole fraction
same,Mole fraction solubility,"[2]; neat DES Bet - ETG, HBA:HBD molar ratio 1:2, 25 °C",0.0351±0.0002 mole fraction
same,Mole fraction solubility,"[2]; neat DES Bet - GLY, HBA:HBD molar ratio 1:1, 25 °C",0.0670±0.0005 mole fraction
same,Mole fraction solubility,"[2]; neat DES Bet - GLY, HBA:HBD molar ratio 1:2, 25 °C",0.0898 mole fraction
same,Mole fraction solubility,"[2]; neat DES Bet - GLY, HBA:HBD molar ratio 1:2, 25 °C, listed as coumaric acid",0.0898±0.0003 mole fraction
same,Mole fraction solubility,"[2]; neat DES Bet - GLY, HBA:HBD molar ratio 1:4, 25 °C",0.0739±0.0004 mole fraction
same,Mole fraction solubility,"[2]; neat DES Bet - TEG, HBA:HBD molar ratio 1:1, 25 °C",0.0648±0.0006 mole fraction
same,Mole fraction solubility,"[2]; neat DES Bet - TEG, HBA:HBD molar ratio 1:2, 25 °C",0.0894±0.0005 mole fraction
same,Mole fraction solubility,"[2]; neat DES Bet - TEG, HBA:HBD molar ratio 1:4, 25 °C",0.0778±0.0005 mole fraction
same,Mole fraction solubility,"[2]; neat DES ChCl - DEG, HBA:HBD molar ratio 1:1, 25 °C",0.0644±0.0004 mole fraction
same,Mole fraction solubility,"[2]; neat DES ChCl - DEG, HBA:HBD molar ratio 1:2, 25 °C",0.0775±0.0005 mole fraction
same,Mole fraction solubility,"[2]; neat DES ChCl - ETG, HBA:HBD molar ratio 1:1, 25 °C",0.0387±0.0004 mole fraction
same,Mole fraction solubility,"[2]; neat DES ChCl - ETG, HBA:HBD molar ratio 1:2, 25 °C",0.0470±0.0003 mole fraction
same,Mole fraction solubility,"[2]; neat DES ChCl - ETG, HBA:HBD molar ratio 1:4, 25 °C",0.0411±0.0004 mole fraction
same,Mole fraction solubility,"[2]; neat DES ChCl - TEG, HBA:HBD molar ratio 1:2, 25 °C",0.0997 mole fraction
